# Experimental data reported in the supplement of paper PMC10307832.
# Columns and labels:
# Experiment in all cases: relative viability (nuclei count vs DMSO), 5 days (fraction); higher = more cells survive
# LC-2-ad = tested on: LC-2-ad
# Outline: (§1)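 Lung cancer cell lines were seeded in 1536-well plates and dosed by pin tool the next day, with either a single drug or a fixed anchor-drug dose combined with five library-drug doses (not always all listed) spaced in √10 steps. Five days later, one step fixed the cells and stained their nuclei (final 0.05% Triton X-100, 1% formaldehyde, 1 ug/ml Hoechst), and nuclei were counted on 4× images. Relative viability is the nuclei count in treated wells divided by the count in vehicle wells, and each value is the median of duplicate plates.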
# NCI-H2228 = tested on: NCI-H2228
# Outline: as §1
# NCI-H650 = tested on: NCI-H650
# Outline: as §1
# SK-MES-1 = tested on: SK-MES-1
# Outline: as §1
# UMC-11 = tested on: UMC-11
# Outline: as §1
# NCI-H2347 = tested on: NCI-H2347
# Outline: as §1
# NCI-H1355 = tested on: NCI-H1355
# Outline: as §1
# NCI-H1993 = tested on: NCI-H1993
# Outline: as §1
# NCI-H1734 = tested on: NCI-H1734
# Outline: as §1
# NCI-H1975 = tested on: NCI-H1975
# Outline: as §1
# A-427 = tested on: A-427
# Outline: as §1
# NCI-H1755 = tested on: NCI-H1755
# Outline: as §1
# NCI-H23 = tested on: NCI-H23
# Outline: as §1
# LCLC-103H = tested on: LCLC-103H
# Outline: as §1
# RERF-LC-KJ = tested on: RERF-LC-KJ
# Outline: as §1
# NCI-H1915 = tested on: NCI-H1915
# Outline: as §1
# NCI-H2170 = tested on: NCI-H2170
# Outline: as §1
# SW 1573 = tested on: SW 1573
# Outline: as §1
# HCC-366 = tested on: HCC-366
# Outline: as §1
# NCI-H1792 = tested on: NCI-H1792
# Outline: as §1
# SK-LU-1 = tested on: SK-LU-1
# Outline: as §1
# HCC-827 = tested on: HCC-827
# Outline: as §1
structure (smiles),measurement,setting,value
Cc1cn(-c2cc(NC(=O)c3ccc(C)c(Nc4nccc(-c5cccnc5)n4)c3)cc(C(F)(F)F)c2)cn1 [Nilotinib] + C[C@@H](Oc1cc(-c2cnn(C3CCNCC3)c2)cnc1N)c1c(Cl)ccc(F)c1Cl [Crizotinib] (partner 1 µM),relative viability,LC-2-ad; first compound 0.001 µM,0.43
same,relative viability,LC-2-ad; first compound 0.003162 µM,0.436
same,relative viability,LC-2-ad; first compound 0.01 µM,0.449
same,relative viability,LC-2-ad; first compound 0.03162 µM,0.42
same,relative viability,LC-2-ad; first compound 0.1 µM,0.522
same,relative viability,NCI-H2228; first compound 0.001 µM,0.53
same,relative viability,NCI-H2228; first compound 0.003162 µM,0.418
same,relative viability,NCI-H2228; first compound 0.01 µM,0.606
same,relative viability,NCI-H2228; first compound 0.03162 µM,0.461
same,relative viability,NCI-H2228; first compound 0.1 µM,0.294
same,relative viability,NCI-H650; first compound 0.001 µM,0.637
same,relative viability,NCI-H650; first compound 0.003162 µM,0.551
same,relative viability,NCI-H650; first compound 0.01 µM,0.844
same,relative viability,NCI-H650; first compound 0.03162 µM,0.601
same,relative viability,NCI-H650; first compound 0.1 µM,0.715
same,relative viability,SK-MES-1; first compound 0.003162 µM,1.09
same,relative viability,SK-MES-1; first compound 0.01 µM,1.06
same,relative viability,SK-MES-1; first compound 0.03162 µM,0.994
same,relative viability,SK-MES-1; first compound 0.1 µM,0.982
same,relative viability,UMC-11; first compound 0.001 µM,0.561
same,relative viability,UMC-11; first compound 0.003162 µM,0.525
same,relative viability,UMC-11; first compound 0.01 µM,0.585
same,relative viability,UMC-11; first compound 0.1 µM,0.68
same,relative viability,NCI-H2347; first compound 0.001 µM,0.698
same,relative viability,NCI-H2347; first compound 0.003162 µM,0.731
same,relative viability,NCI-H2347; first compound 0.01 µM,0.686
same,relative viability,NCI-H2347; first compound 0.03162 µM,0.629
same,relative viability,NCI-H2347; first compound 0.1 µM,0.853
same,relative viability,NCI-H1355; first compound 0.001 µM,1.05
same,relative viability,NCI-H1355; first compound 0.003162 µM,1.15
same,relative viability,NCI-H1355; first compound 0.01 µM,1.38
same,relative viability,NCI-H1355; first compound 0.03162 µM,0.909
same,relative viability,NCI-H1355; first compound 0.1 µM,1.09
same,relative viability,NCI-H1993; first compound 0.001 µM,0.998
same,relative viability,NCI-H1993; first compound 0.003162 µM,0.838
same,relative viability,NCI-H1993; first compound 0.01 µM,0.994
same,relative viability,NCI-H1993; first compound 0.03162 µM,0.762
same,relative viability,NCI-H1993; first compound 0.1 µM,0.887
same,relative viability,NCI-H1734; first compound 0.001 µM,0.68
same,relative viability,NCI-H1734; first compound 0.003162 µM,0.659
same,relative viability,NCI-H1734; first compound 0.01 µM,0.717
same,relative viability,NCI-H1734; first compound 0.03162 µM,0.433
same,relative viability,NCI-H1734; first compound 0.1 µM,0.475
same,relative viability,NCI-H1975; first compound 0.001 µM,0.811
same,relative viability,NCI-H1975; first compound 0.003162 µM,1.11
same,relative viability,NCI-H1975; first compound 0.01 µM,1.16
same,relative viability,NCI-H1975; first compound 0.03162 µM,0.616
same,relative viability,NCI-H1975; first compound 0.1 µM,0.907
same,relative viability,A-427; first compound 0.001 µM,0.715
same,relative viability,A-427; first compound 0.01 µM,1.25
same,relative viability,A-427; first compound 0.03162 µM,0.548
same,relative viability,A-427; first compound 0.1 µM,0.546
same,relative viability,NCI-H1755; first compound 0.001 µM,0.778
same,relative viability,NCI-H1755; first compound 0.003162 µM,0.962
same,relative viability,NCI-H1755; first compound 0.01 µM,1.2
same,relative viability,NCI-H1755; first compound 0.03162 µM,0.666
same,relative viability,NCI-H1755; first compound 0.1 µM,0.745
same,relative viability,NCI-H23; first compound 0.001 µM,0.471
same,relative viability,NCI-H23; first compound 0.003162 µM,0.442
same,relative viability,NCI-H23; first compound 0.01 µM,0.6
same,relative viability,NCI-H23; first compound 0.03162 µM,0.328
same,relative viability,NCI-H23; first compound 0.1 µM,0.378
same,relative viability,LCLC-103H; first compound 0.003162 µM,1.07
same,relative viability,LCLC-103H; first compound 0.03162 µM,0.945
same,relative viability,LCLC-103H; first compound 0.1 µM,1.08
same,relative viability,RERF-LC-KJ; first compound 0.001 µM,0.872
same,relative viability,RERF-LC-KJ; first compound 0.003162 µM,0.891
same,relative viability,RERF-LC-KJ; first compound 0.01 µM,0.917
same,relative viability,RERF-LC-KJ; first compound 0.03162 µM,0.814
same,relative viability,RERF-LC-KJ; first compound 0.1 µM,0.867
same,relative viability,NCI-H1915; first compound 0.001 µM,0.73
same,relative viability,NCI-H1915; first compound 0.003162 µM,1.18
same,relative viability,NCI-H1915; first compound 0.01 µM,1.24
same,relative viability,NCI-H1915; first compound 0.03162 µM,0.787
same,relative viability,NCI-H1915; first compound 0.1 µM,0.848
same,relative viability,NCI-H2170; first compound 0.001 µM,1.12
same,relative viability,NCI-H2170; first compound 0.003162 µM,1.21
same,relative viability,NCI-H2170; first compound 0.01 µM,1.61
same,relative viability,NCI-H2170; first compound 0.03162 µM,0.915
same,relative viability,NCI-H2170; first compound 0.1 µM,1.19
same,relative viability,SW 1573; first compound 0.001 µM,0.798
same,relative viability,SW 1573; first compound 0.003162 µM,0.882
same,relative viability,SW 1573; first compound 0.01 µM,0.946
same,relative viability,SW 1573; first compound 0.03162 µM,0.826
same,relative viability,SW 1573; first compound 0.1 µM,0.823
same,relative viability,HCC-366; first compound 0.001 µM,0.484
same,relative viability,HCC-366; first compound 0.003162 µM,0.627
same,relative viability,HCC-366; first compound 0.01 µM,1.38
same,relative viability,HCC-366; first compound 0.03162 µM,0.389
same,relative viability,HCC-366; first compound 0.1 µM,0.609
same,relative viability,NCI-H1792; first compound 0.001 µM,0.967
same,relative viability,NCI-H1792; first compound 0.01 µM,1.15
same,relative viability,NCI-H1792; first compound 0.1 µM,1.16
same,relative viability,SK-LU-1; first compound 0.001 µM,0.893
same,relative viability,SK-LU-1; first compound 0.003162 µM,0.888
same,relative viability,SK-LU-1; first compound 0.01 µM,0.933
same,relative viability,SK-LU-1; first compound 0.03162 µM,0.805
same,relative viability,SK-LU-1; first compound 0.1 µM,0.693
same,relative viability,HCC-827; first compound 0.001 µM,0.936
same,relative viability,HCC-827; first compound 0.003162 µM,0.954
same,relative viability,HCC-827; first compound 0.01 µM,0.893
same,relative viability,HCC-827; first compound 0.1 µM,0.91
